{"source": "paper PMC10378394", "about": "(Current Issues in Molecular Biology, 2023)", "key": {"AKT phosphorylation": {"test_system": "AKT phosphorylation", "test": "Western blot in LS513 cells", "format": "cell-based, human", "details": "LS513, 1 h treatment", "protocol": "(§1) In 6-well plates, LS513 cells were seeded and allowed to adhere and proliferate for 24 h. […] After treatment, the cells were harvested using RIPA lysis buffer to extract cellular proteins. The cell lysates were subjected to Western blot analysis. Antibodies specific to phosphorylated epidermal growth factor receptor (p-EGFR, Cell Signaling Technology, Danvers, MA, USA, #2234S), epidermal growth factor receptor (EGFR, Cell Signaling Technology #2232S), phosphorylated vascular endothelial growth factor receptor (p-VEGFR, Cell Signaling Technology #3770S), vascular endothelial growth factor receptor (VEGFR, Cell Signaling Technology #2479S), phosphorylated Akt (p-Akt, Cell Signaling Technology #9271S), Akt (Cell Signaling Technology #9272S), phosphorylated MEK (p-MEK, Cell Signaling Technology #9121S), MEK (Cell Signaling Technology #9122), phosphorylated ERK (p-ERK, Cell Signaling Technology #9101S), and ERK (Cell Signaling Technology #9102S) were used for protein detection. The antibodies were diluted 1:1000 for the specific target proteins. In addition, a β-actin antibody (Sigma-Aldrich, Seoul, Republic of Korea, #A5441) diluted 1:5000 was used as a loading control. Bone-marrow-derived macrophages (BMDMs) were plated and allowed to adhere and proliferate for 24 h. […] Subsequently, the cells were stimulated with recombinant human angiopoietin-2 (R&D Systems, Minneapolis, MN, USA, #623-AN) and CSF1 (Peprotech, #300-25) for 15 min. After stimulation, protein samples were obtained from the cells. The cell lysates were analyzed by Western blot using specific antibodies, such as p-CSF1R (Cell Signaling, #14591S), CSF1R (Cell Signaling, #67455S), p-TIE2 (Cell Signaling, #4221S), and TIE2 (Santa Cruz Biotechnology, Dallas, TX, USA, #sc-293414), to detect and analyze the respective proteins."}, "[1]": {"test_system": "MEK and ERK phosphorylation", "test": "Western blot in LS513 cells", "format": "cell-based, human", "protocol": "as §1"}, "MC38 syngeneic tumor": {"test_system": "MC38 syngeneic tumor", "test": "In vivo efficacy, syngeneic model", "design": "species or system C57BL/6 mice", "details": "80 mg/kg po QD", "protocol": "Human-derived colorectal cancer cell lines, LS513, HCT-116, and HT29, were subcutaneously transplanted into 6-week-old female BALB/c nude mice to establish tumor models. Additionally, the mouse cancer cell line MC38 was subcutaneously transplanted into 6-week-old female and C57BL/6 mice to induce tumor formation. […]. The treatments were administered orally once daily for 2 weeks based on the growth rate observed in the vehicle group. Tumor volume was evaluated three times a week using the formula Tumor volume (TV) = (tumor short diameter ^2 × tumor long diameter)/2. The body weight of the mice was measured three times a week to assess potential toxicity in vivo. […]"}, "MC38 tumor tissue": {"test_system": "MC38 tumor tissue", "test": "Immunofluorescence of tumor tissue", "format": "in vivo, mouse", "details": "MC38 tumors of treated mice", "protocol": "Immunofluorescence staining was performed on tumor tissues. First, tumor tissue fixation was performed using 4% paraformaldehyde (Sigma-Aldrich, #HT5011). Next, heat-induced epitope retrieval was performed by incubating the tissue in 10 mM sodium citrate for 10 min. Subsequently, permeabilization was achieved by treating the tissue with 0.2% Triton X-100 (Sigma-Aldrich, #X100) for 5 min. To block nonspecific binding, the tissue was incubated in 5% skim milk for 40 min. Primary antibodies, including FOXP3 (eBioscience, San Diego, CA, USA, #11-5773-82), CD8 (eBioscience #53-0081-82), CD31 (Abcam, Cambridge, UK, #ab28364), F480 (Abcam #ab6640), CD163 (Abcam #ab182422), and CD206 (Abcam #ab64693), were used. The secondary antibodies used were FITC-conjugated AffiniPure F(ab’)2 fragment goat anti-rat IgG (H + L) (Jackson ImmunoResearch, West Grove, PA, USA, #112-096-003) and Cy3-conjugated AffiniPure F(ab’)2 fragment goat anti-rabbit IgG (H + L) (Jackson ImmunoResearch #111-166-003). The stained tissue was mounted using ProLong™ Gold Antifade Mountant with DAPI (Invitrogen, Waltham, MA, USA) #14-5773-82). Fluorescent images of the samples were captured using the Agilent BioTek Cytation 1 device. The images were analyzed using the Gen5 program (Version3, BioTek, Winooski, VT, USA) to extract relevant data and perform quantitative analysis."}, "[2]": {"test": "Single oral dose, central nervous system", "format": "in vivo, ICR mice", "details": "single oral dose 500 mg/kg"}, "CRAF": {"target": "CRAF (Homo sapiens, UniProt P04049)", "sequence (P04049 whole entry)": "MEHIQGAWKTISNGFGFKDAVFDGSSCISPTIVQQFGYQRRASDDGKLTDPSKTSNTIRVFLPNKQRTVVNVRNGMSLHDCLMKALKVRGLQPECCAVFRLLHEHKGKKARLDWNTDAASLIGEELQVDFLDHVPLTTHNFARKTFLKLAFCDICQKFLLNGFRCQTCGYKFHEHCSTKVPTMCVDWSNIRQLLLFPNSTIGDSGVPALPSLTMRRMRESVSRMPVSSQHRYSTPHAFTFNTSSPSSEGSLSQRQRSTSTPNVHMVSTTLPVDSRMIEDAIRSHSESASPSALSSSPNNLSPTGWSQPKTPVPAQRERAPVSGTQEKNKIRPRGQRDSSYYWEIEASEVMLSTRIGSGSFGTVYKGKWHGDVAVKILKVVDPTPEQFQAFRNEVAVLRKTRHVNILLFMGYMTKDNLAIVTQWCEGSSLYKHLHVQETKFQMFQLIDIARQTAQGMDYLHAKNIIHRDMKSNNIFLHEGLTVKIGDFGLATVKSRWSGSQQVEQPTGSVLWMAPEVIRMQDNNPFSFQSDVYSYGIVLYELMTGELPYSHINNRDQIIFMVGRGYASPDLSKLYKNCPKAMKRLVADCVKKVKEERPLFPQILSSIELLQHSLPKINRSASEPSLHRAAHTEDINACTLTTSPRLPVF", "test": "Eurofins kinase assay"}, "BRAF": {"target": "BRAF (Homo sapiens, UniProt P15056)", "sequence (P15056 whole entry)": "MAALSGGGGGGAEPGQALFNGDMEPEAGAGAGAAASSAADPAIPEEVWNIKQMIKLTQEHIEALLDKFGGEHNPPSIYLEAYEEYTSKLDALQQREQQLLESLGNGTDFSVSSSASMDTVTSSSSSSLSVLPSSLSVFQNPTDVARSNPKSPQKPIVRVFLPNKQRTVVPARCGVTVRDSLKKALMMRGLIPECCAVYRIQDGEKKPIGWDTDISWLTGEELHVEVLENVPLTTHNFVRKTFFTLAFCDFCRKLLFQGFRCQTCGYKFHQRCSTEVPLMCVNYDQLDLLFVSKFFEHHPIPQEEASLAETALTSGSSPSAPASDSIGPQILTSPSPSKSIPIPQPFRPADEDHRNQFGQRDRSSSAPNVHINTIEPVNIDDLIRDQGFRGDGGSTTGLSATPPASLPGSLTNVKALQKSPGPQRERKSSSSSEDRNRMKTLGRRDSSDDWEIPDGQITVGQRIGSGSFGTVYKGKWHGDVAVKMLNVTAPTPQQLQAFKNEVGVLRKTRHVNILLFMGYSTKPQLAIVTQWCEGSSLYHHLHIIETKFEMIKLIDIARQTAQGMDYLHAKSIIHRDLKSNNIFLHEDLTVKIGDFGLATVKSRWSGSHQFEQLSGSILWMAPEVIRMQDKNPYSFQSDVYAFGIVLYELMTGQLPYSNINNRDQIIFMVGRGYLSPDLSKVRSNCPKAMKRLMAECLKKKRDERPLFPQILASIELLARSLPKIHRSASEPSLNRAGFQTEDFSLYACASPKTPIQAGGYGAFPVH", "test": "Eurofins kinase assay"}, "cSRC(h)": {"target": "cSRC(h) (Homo sapiens, UniProt P12931)", "sequence (P12931 whole entry)": "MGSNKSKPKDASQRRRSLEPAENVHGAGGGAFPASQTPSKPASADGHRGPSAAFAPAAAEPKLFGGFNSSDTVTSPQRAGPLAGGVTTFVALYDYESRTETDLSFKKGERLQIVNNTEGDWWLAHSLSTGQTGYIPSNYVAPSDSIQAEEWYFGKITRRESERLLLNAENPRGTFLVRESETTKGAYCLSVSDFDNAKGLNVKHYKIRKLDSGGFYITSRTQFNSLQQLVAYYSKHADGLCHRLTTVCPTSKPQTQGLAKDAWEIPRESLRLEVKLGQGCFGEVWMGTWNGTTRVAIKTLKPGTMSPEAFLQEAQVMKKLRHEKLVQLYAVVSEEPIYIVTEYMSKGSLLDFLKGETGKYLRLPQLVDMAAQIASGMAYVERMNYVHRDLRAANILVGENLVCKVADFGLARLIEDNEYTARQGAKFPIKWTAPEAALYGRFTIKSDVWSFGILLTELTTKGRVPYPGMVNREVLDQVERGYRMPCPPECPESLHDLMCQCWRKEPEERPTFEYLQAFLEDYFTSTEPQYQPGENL", "test": "Eurofins kinase assay"}, "p70S6K(h)": {"target": "p70S6K(h) (Homo sapiens, UniProt P23443)", "sequence (P23443 whole entry)": "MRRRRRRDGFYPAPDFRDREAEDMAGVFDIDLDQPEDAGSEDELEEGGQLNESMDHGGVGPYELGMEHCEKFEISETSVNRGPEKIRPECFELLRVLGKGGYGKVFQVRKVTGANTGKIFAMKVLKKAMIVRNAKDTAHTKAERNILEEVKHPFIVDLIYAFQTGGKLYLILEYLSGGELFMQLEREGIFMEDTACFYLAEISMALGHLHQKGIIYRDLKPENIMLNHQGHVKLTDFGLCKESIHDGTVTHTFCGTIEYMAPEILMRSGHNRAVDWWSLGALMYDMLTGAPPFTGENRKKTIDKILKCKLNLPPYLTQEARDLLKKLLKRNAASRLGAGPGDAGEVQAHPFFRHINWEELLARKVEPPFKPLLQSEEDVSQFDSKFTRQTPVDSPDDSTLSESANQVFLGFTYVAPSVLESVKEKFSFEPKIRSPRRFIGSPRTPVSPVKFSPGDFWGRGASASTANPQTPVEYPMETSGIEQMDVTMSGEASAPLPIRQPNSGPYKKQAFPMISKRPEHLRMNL", "test": "Eurofins kinase assay"}, "PKCθ(h)": {"target": "PKCθ(h) (Homo sapiens, UniProt Q04759)", "sequence (Q04759 whole entry)": "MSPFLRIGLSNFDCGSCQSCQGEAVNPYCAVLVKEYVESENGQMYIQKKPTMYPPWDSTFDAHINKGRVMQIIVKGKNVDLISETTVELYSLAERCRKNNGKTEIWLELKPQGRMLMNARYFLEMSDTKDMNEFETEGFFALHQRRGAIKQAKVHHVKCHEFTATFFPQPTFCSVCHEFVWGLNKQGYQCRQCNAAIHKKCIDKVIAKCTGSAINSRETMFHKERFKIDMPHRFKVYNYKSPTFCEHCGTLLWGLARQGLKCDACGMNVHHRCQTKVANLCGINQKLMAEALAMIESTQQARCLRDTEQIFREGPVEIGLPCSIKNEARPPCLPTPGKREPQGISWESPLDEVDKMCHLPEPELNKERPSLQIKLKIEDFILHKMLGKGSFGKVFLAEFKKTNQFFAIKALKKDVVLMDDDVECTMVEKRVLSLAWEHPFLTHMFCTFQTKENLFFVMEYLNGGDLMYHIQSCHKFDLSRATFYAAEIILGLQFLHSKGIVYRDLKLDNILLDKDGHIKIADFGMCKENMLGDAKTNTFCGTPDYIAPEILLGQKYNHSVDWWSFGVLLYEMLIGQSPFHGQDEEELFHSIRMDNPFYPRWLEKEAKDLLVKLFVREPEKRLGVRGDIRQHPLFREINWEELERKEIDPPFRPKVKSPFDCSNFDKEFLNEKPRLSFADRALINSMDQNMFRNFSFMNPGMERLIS", "test": "Eurofins kinase assay"}, "PKBγ(h)": {"target": "PKBγ(h) (Homo sapiens, UniProt Q9Y243)", "sequence (Q9Y243 whole entry)": "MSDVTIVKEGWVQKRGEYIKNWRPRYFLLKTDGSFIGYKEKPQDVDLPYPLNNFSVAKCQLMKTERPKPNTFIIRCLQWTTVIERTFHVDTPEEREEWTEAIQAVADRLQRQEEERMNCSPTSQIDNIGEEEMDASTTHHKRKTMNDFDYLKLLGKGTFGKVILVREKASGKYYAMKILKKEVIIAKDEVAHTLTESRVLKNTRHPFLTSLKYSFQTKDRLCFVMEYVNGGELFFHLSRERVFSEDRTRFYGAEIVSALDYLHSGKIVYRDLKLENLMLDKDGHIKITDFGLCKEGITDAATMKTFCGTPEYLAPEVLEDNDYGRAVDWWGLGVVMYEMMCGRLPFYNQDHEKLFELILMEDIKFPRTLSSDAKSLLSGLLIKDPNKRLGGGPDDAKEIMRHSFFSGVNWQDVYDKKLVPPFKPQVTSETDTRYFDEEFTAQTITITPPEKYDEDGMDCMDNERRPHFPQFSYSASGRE", "test": "Eurofins kinase assay"}, "Rsk2(h)": {"target": "Rsk2(h) (Homo sapiens, UniProt P51812)", "test": "Eurofins kinase assay"}, "PKCε(h)": {"target": "PKCε(h) (Homo sapiens, UniProt Q02156)", "test": "Eurofins kinase assay"}, "CDK3/cyclinE(h)": {"target": "CDK3/cyclinE(h) (Homo sapiens, UniProt Q00526)", "test": "Eurofins kinase assay"}, "MAPK2(h)": {"target": "MAPK2(h) (Homo sapiens, UniProt P28482)", "sequence (P28482 whole entry)": "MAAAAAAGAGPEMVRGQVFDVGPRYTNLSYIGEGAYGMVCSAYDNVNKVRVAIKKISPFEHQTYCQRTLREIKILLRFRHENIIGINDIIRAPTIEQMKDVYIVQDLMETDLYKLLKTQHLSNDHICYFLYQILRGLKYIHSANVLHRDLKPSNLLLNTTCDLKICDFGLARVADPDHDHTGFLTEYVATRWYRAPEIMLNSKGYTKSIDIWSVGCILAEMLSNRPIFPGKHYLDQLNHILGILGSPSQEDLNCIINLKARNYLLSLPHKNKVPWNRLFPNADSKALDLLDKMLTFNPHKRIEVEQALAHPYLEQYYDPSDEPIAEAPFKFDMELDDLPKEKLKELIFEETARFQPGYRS", "test": "Eurofins kinase assay"}, "CK2(h)": {"target": "CK2(h) (Homo sapiens, UniProt P68400)", "sequence (P68400 whole entry)": "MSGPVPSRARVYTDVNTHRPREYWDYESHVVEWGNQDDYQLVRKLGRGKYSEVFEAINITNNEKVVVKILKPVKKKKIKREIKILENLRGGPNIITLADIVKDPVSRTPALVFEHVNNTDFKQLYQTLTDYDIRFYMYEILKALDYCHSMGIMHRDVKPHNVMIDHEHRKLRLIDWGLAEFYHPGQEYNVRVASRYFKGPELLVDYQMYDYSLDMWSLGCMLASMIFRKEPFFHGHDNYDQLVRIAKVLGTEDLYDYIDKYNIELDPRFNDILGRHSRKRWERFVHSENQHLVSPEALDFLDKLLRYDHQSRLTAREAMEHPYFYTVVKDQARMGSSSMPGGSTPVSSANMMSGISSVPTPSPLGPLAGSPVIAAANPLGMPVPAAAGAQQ", "sequence (P67870 whole entry partner)": "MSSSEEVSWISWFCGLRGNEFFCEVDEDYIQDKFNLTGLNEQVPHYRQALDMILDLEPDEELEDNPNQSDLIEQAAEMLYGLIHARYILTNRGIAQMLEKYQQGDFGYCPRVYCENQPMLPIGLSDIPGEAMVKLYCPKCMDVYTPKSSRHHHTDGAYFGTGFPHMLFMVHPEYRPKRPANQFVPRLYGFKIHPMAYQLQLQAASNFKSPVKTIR", "test": "Eurofins kinase assay"}, "SGK(h)": {"target": "SGK(h) (Homo sapiens, UniProt O00141)", "test": "Eurofins kinase assay"}}, "data": [{"smiles": "O=C(Nc1cc(Nc2ncccc2-c2ncnc3[nH]cnc23)ccc1F)c1cc(C(F)(F)F)cc(C(F)(F)F)c1", "note": "[SJ-C1044, N-(5-(3-(9H-purin-6-yl)pyridin-2-ylamino)-2-fluorophenyl)-3,5-bis(trifluoromethyl)benzamide]", "values": [{"measurement": "AKT phosphorylation", "setting": "AKT phosphorylation", "value": "no detectable difference"}, {"measurement": "paradoxical activation of MEK and ERK", "setting": "[1]; KRAS-mutated colorectal cancer cells", "value": "without any evidence of paradoxical activation"}, {"measurement": "MEK and ERK phosphorylation", "setting": "[1]; LS513, 1 h treatment", "value": "inhibited MEK and ERK phosphorylation potently"}, {"measurement": "TGI", "setting": "MC38 syngeneic tumor; 14 days", "value": 88, "unit": "%"}, {"measurement": "MC38 tumor growth in vivo", "setting": "MC38 syngeneic tumor; compared to the control", "value": "completely inhibited"}, {"measurement": "CD31 staining (angiogenesis)", "setting": "MC38 tumor tissue", "value": "reduced"}, {"measurement": "CD163+ or CD206+ staining (M2 macrophages)", "setting": "MC38 tumor tissue", "value": "significant decrease"}, {"measurement": "F4/80+ staining intensity (pan macrophage marker)", "setting": "MC38 tumor tissue", "value": "notably reduced"}, {"measurement": "infiltration of CD8+ T cells", "setting": "MC38 tumor tissue", "value": "increase"}, {"measurement": "population of FOXP3+ cells", "setting": "MC38 tumor tissue", "value": "reducing"}, {"measurement": "central nervous system changes", "setting": "[2]", "value": "did not result in any abnormal changes"}, {"measurement": "inhibition at 10 µM", "setting": "CRAF", "value": 86, "unit": "%"}, {"measurement": "inhibition at 10 µM", "setting": "BRAF", "value": 68, "unit": "%"}, {"measurement": "inhibition at 10 µM", "setting": "cSRC(h)", "value": 38, "unit": "%"}, {"measurement": "inhibition at 10 µM", "setting": "p70S6K(h)", "value": 8, "unit": "%"}, {"measurement": "inhibition at 10 µM", "setting": "PKCθ(h)", "value": 5, "unit": "%"}, {"measurement": "inhibition at 10 µM", "setting": "PKBγ(h)", "value": 2, "unit": "%"}, {"measurement": "inhibition at 10 µM", "setting": "Rsk2(h)", "value": -4, "unit": "%"}, {"measurement": "inhibition at 10 µM", "setting": "PKCε(h)", "value": -5, "unit": "%"}, {"measurement": "inhibition at 10 µM", "setting": "CDK3/cyclinE(h)", "value": -7, "unit": "%"}, {"measurement": "inhibition at 10 µM", "setting": "MAPK2(h)", "value": -7, "unit": "%"}, {"measurement": "inhibition at 10 µM", "setting": "CK2(h)", "value": -11, "unit": "%"}, {"measurement": "inhibition at 10 µM", "setting": "SGK(h)", "value": -34, "unit": "%"}]}]}
